Here are results for three compounds from patent US20220306728A1 (priority 2019, published 2022).

Common to all, as to assay: microbe, parasite or virus in culture
One assay deals with H3N2 and H1N1 strains. It counts as cell-based, influenza A virus.
In the next assay the test system is H1N1 virus. The assay is classed as cell-based. As to conditions: Influenza A virus, H1N1, MDCK.
Another assay has as its system H3N2 virus. The assay is classed as cell-based. As to conditions: Influenza A virus, H3N2, MDCK.

Like-named read-outs stand apart in the source and are kept apart here.

`COC(=O)OCOc1c2n(ccc1=O)N([C@@H]1c3ccccc3SCc3c1ccc(F)c3F)[C@@H]1COCCN1C2=O` [baloxavir marboxil, reference compound]: the IC50 in the assay on H3N2 and H1N1 strains (read-out: IC50) was 2.3 to 4.9 nM.
For `CCOC(=O)C1=C[C@@H](OC(CC)CC)[C@H](NC(C)=O)[C@@H](N)C1` [oseltamivir], the IC50 in the assay on H1N1 virus stood at 9.1 nM; in the assay with H3N2 virus, 7 nM.
As for `CC(=O)N[C@H]1[C@H]([C@H](O)[C@H](O)CO)OC(C(=O)O)=C[C@@H]1N=C(N)N` [zanamivir, reference compound], in the assay with H3N2 and H1N1 strains (Influenza A virus, MDCK), the IC50 fell in the range of 10.7 to 13.7 nM.
